According to ChEMBL document CHEMBL1146748, “Synthesis and preliminary biological evaluation of truncated zoanthenol analogues” (Bioorg Med Chem Lett, 2004):

Tests used:
MH60 [1] = assay: Compound was tested for inhibition of interleukin-6-dependent MH60 cell growth; assay type: functional, cell-based; conditions: Mus musculus
MH60 [2] = assay: Compound was tested for inhibition of interleukin-6-dependent MH60 cell growth; Very weak inhibition; assay type: functional, cell-based

Row | SMILES | IC50 (MH60 [1]) [µM] | IC50 (MH60 [2])
1 | C[C@H]1C[C@@H]2C[N+]3=C4CCC[C@](C)(CC(=O)O)[C@]4(C)CC[C@@]3(C1)O2 | ~70 | 
2 | CCCCC1=C(C)C(=O)[C@](C)(CN2c3ccccc3[C@]3(O)CCOC23)C1=O (stereo partly specified) [MADINDOLINE A] | 8 | 
3 | C[C@H]1C[C@@H]2CN3C45CCC[C@](C)(CC(=O)O4)[C@]5(C)CC[C@@]3(C1)O2 |  | Very weak inhibition
4 | Cc1cc(O)c2c(c1)[C@]1(C)CC(=O)[C@@]3(C)CCCC[C@@]3(C)[C@@]1(C)C(=O)[C@@H]2C |  | Very weak inhibition
5 | CC1=CC(=O)[C@H]2CC(=O)[C@H]3[C@@](C)(CC4=[N+]5C[C@H]6C[C@H](C)C[C@]5(CC[C@@]4(C)[C@@]3(C)CC(=O)O)O6)[C@@H]2C1 | 13 | 
6 | CC1=CC(=O)[C@@H]2[C@@H](C1)[C@]1(C)CC3=[N+]4C[C@H]5C[C@H](C)C[C@]4(CC[C@@]3(C)[C@@](C)(CC(=O)O)[C@H]1C(=O)[C@@H]2C)O5 | 26 | 
